Measurements from PubChem BioAssay AID720662 (NMMLSC, 2013).
Active and inactive are the calls of the source.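 How the source made its calls: active means inhibition of esterase secretion above 50%; inactive means inhibition of esterase secretion below 50%.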

Tested on: TALL-104 cells, BLT esterase secretion, DTNB absorbance
Test: inhibitors of granule serine esterase release, confirmation, TALL-104 cells, BLT/DTNB absorbance, CherryPick01 (AID 720662)
Conditions: stronger effect = higher value; dose or concentration not given here

SMILES | inhibition
O=C(OCc1ccccc1)N(CCCCN(CCCNCc1ccccc1)C(=O)OCc1ccccc1)CCCNCc1ccccc1 | 88%
CN1CCN(c2cc(-c3ccccc3)nc3cc(-c4ccc(F)cc4)nn23)CC1 | 79%
O=C(Cn1sc2ccccc2c1=O)NC12CC3CC(CC(C3)C1)C2 | 33% (inactive)
Cc1ccc(-n2nnc3c(=O)oc4ccccc4c32)cc1 | 94%
COC(=O)c1c(NC(=O)c2ccc(C(=O)c3ccccc3)cc2)sc2c1CC(C)(C)NC2(C)C | 5% (inactive)
N#Cc1ccc(NC(=O)Nc2ccc(Oc3ccc(NC(=O)Nc4ccc(C#N)cc4)cc3)cc2)cc1 | 36% (inactive)
CCCS(=O)(=O)Nc1ccc(Nc2c3ccccc3nc3ccccc23)c(OC)c1 | 81%
O=c1c2ccccc2sn1-c1ccccc1 | 68%
CCc1ccc(/C=C2/Sc3ccccc3N(CC(=O)NCCCN3CCOCC3)C2=O)cc1 | 14% (inactive)
Nc1c(C(=O)NCc2ccc(F)cc2)c2nc3ccccc3nc2n1CCCN1CCOCC1 | 15% (inactive)
N#Cc1c(Nc2ccccc2Cl)s[nH]c1=O | 92%
CC(C)(c1ccccc1)c1ccc(OCC(O)CNC2CCN(Cc3ccccc3)CC2)cc1 (stereo not given) | 83%
O=S(=O)(c1ccccc1)c1nnn2c1nc(NC1CCN(Cc3ccccc3)CC1)c1cc(Cl)ccc12 | 88%
c1ccc(CNc2nc(NCC3CC3)nc3cc(-c4ccccc4)sc23)cc1 | 86%
O=C(Cn1sc2ccccc2c1=O)Nc1ccc(F)cc1 | 38% (inactive)
COc1ccc([N+](=O)[O-])cc1Nc1c2ccccc2nc2ccccc12 | 10% (inactive)
CCC(=C(c1ccc(OC)cc1)c1ccc(OC)cc1)c1cn(CC(O)CN2CCN(C)CC2)c2ccccc12 (stereo not given) | 1% (inactive)
COc1ccc(-c2cc(NC=O)c3ncc(-c4cccc(OC)c4)n3c2)cc1 | 77%
CC1COCC(C)N1C1=C(Cl)C(=O)c2ccccc2C1=O (stereo not given) | 97%
CCOc1cc(CNCCc2ccc(S(N)(=O)=O)cc2)ccc1OCc1ccc(Cl)cc1 | 90%
COc1ccc(-n2sc3ccccc3c2=O)cc1 | 45% (inactive)
CCOc1ccccc1CNC(=O)C1CCN(c2nnc(C)c3c(C)n(-c4ccc(C)cc4)nc23)CC1 | 94%
CCCNC(=O)Cn1sc2nc(C)cc(C)c2c1=O | 38% (inactive)
CC(=O)Nc1ccc2sn(-c3ccccc3)c(=O)c2c1 | 20% (inactive)
O=C(Nc1ccc(F)cc1)c1nc(S(=O)(=O)Cc2ccccc2)ncc1Cl | 97%

SMILES | inhibition
Cc1ccc(Nc2nc(NCc3ccco3)c3ccccc3n2)cc1 | 12% (inactive)
COc1cc(-c2coc3c(C(=O)NCc4ccc(OC)c(OC)c4)cccc23)ccc1O | 20% (inactive)
CCCCC[C@@H](C)N1C[C@H](COCc2ccccc2)Oc2cc(N3CC[C@@H](N(C)C)C3)ccc2S1(=O)=O | 64%
Fc1ccc(/C=C\c2nccc3c2[nH]c2ccccc23)cc1 | 86%
Cc1ccc(S(=O)(=O)n2ccc3c(OCCOCCNCc4ccc(F)cc4)cccc32)cc1 | 67%
Cn1sc(=O)c2cc(S(=O)(=O)NC3CC3)ccc21 | 63%
CCOC(=O)c1cc(-c2csc(Nc3c(C)cc(C)cc3C)n2)on1 | 68%
CCc1ccc2nc(N(CCCN(C)C)C(=O)c3ccc(S(=O)(=O)N4CCc5ccccc5C4)cc3)sc2c1 | 67%
Cc1cc(C)c2nc(C)cc(N/N=C/c3ccc(O)cc3)c2c1 | 88%
OC(CNCC(c1ccc(Cl)cc1Cl)c1c[nH]c2ccccc12)c1ccccc1 (stereo not given) | 2% (inactive)
COc1ccccc1CNc1nc(NCc2ccc3occc3c2)c2sccc2n1 | 22% (inactive)
COC(=O)[C@]12CCCCC=C1N(Cc1cccc3ccccc13)C(=O)[C@H](CC(=O)NCc1ccc(OC)c(OC)c1)C2 | 14% (inactive)
COc1cccc(NC(=O)Nc2nc(-c3ccc(OC)c(OC)c3)cs2)c1 | 96%
CCOc1ccc2[nH]c3c(N4CCc5ccccc5C4)ncnc3c2c1 | -5% (inactive)
O=C1C=CC(=O)N1N(c1ccccc1)c1ccccc1 | 27% (inactive)
CCCCC[C@@H](C)N1C[C@@H](COCc2ccccc2)Oc2cc(N3CC[C@H](N(C)C)C3)ccc2S1(=O)=O | 74%
CN(C)CCNC(=O)c1ccc(-c2cn3c(-c4ccc(Oc5ccccc5)cc4)cnc3cn2)cc1 | 14% (inactive)
COc1cccc(-c2cnc3c(NC(C)=O)cc(-c4ccsc4)cn23)c1 | 64%
CCOC(=O)c1c(NC(=O)COc2ccccc2OCC)sc2c1CC(C)(C)NC2(C)C | 55%
COc1ccccc1CNc1nc(NCc2ccc(C(C)C)cc2)c2sccc2n1 | 54%
CCCCn1c(=N)n(CC(=O)c2ccc(Br)s2)c2ccccc21 | 91%
CCOc1ccc2nc(C)cc(Nc3cccc([N+](=O)[O-])c3)c2c1 | 95%
COC(=O)c1c(NC(=O)c2nc3ccccc3s2)sc2c1CC(C)(C)NC2(C)C | 51%
CN(C)CCCNC(=S)NCC(c1ccc(Cl)cc1Cl)c1c[nH]c2ccccc12 (stereo not given) | -3% (inactive)
COc1cccc(-c2cnc3c(NC=O)cc(-c4ccccc4)cn23)c1 | 43% (inactive)

SMILES | inhibition
COc1cccc(-c2cnc3c(NC(C)=O)cc(-c4ccccc4OC)cn23)c1 | 68%
O=C(CN1C(=O)/C(=C\c2cccc(Br)c2)Oc2ccccc21)NCCCN1CCOCC1 | 24% (inactive)
Cc1cc(N2CCN(c3nc(-c4ccc([N+](=O)[O-])cc4)cs3)CC2)c2ccccc2n1 | 80%
O=C1CC(Sc2nnnn2-c2ccccc2)C(=O)N1c1cccc(Cl)c1 (stereo not given) | 72%
CCOc1ccc2nc(N(CCCN(C)C)C(=O)c3ccc(S(=O)(=O)N4CCc5ccccc5C4)cc3)sc2c1 | 91%
Cn1cncc1C#Cc1c(-c2ccc(S(C)(=O)=O)cc2)sc2ccccc12 | 13% (inactive)
CCc1nc2ccc(C(=O)NC3CCN(Cc4ccccc4)CC3)cn2c1N(C)Cc1cc2ccccc2s1 | -4% (inactive)
O=CNc1cc(-c2ccsc2)cn2c(-c3ccccc3)cnc12 | 41% (inactive)
O=c1c2ccccc2sn1-c1ccccc1F | 38% (inactive)
CCCCCCSc1cccc(-c2nc3ccccn3c2NCc2ccccc2)c1 | 7% (inactive)
COc1ccc(N2C(=O)CC(Sc3nnc(-c4ccccc4)o3)C2=O)cc1 (stereo not given) | 89%
CN(c1ccccc1)S(=O)(=O)c1cccc(C(=O)NCCc2c[nH]c3ccccc23)c1 | 23% (inactive)
CN1CCN(CCCNC(=O)c2ccc(/C=C3\Sc4ccccc4N(Cc4ccc(F)cc4)C3=O)cc2)CC1 | -12% (inactive)
CCCCC[C@@H](C)N1C[C@@H](COCc2ccccc2)Oc2cc(N3CC[C@@H](N(C)C)C3)ccc2S1(=O)=O | 76%
CC(C)CNC(=O)c1c(N)n(Cc2ccc3c(c2)OCO3)c2nc3ccccc3nc12 | 3% (inactive)
CC1(C(=O)OCC(=O)Nc2nc(-c3ccc(F)c(F)c3)cs2)CC1(Cl)Cl (stereo not given) | -8% (inactive)
O=c1c2ccc(F)cc2sn1-c1ccccc1 | 61%
CCOC(=O)c1c(CSc2ccccc2)n(C)c2cc(Br)c(O)c(CN(C)C)c12 | 25% (inactive)
CCOC(=O)c1nnc(-c2ccccc2)nc1Sc1ccccc1Cl | -8% (inactive)
COc1ccc(-c2cc(NC=O)c3ncc(-c4ccccc4)n3c2)cc1OC | 63%
CCN(CC)CCCNc1ccc(-c2nnc(-c3ccc(OCC(C)C)cc3)o2)cn1 | 52%
CC(=O)Nc1ccc2c(=O)n(-c3ccccc3)sc2c1 | 25% (inactive)
CC1=NOC(=O)/C1=C/c1ccc(-c2ccc(Cl)cc2)o1 | 73%
O=C1Nc2ccc(Br)cc2/C1=C/C(=O)c1ccccc1 | 3% (inactive)
CC1=C(C)CS(=O)N(S(=O)(=O)c2ccc(Cl)cc2)C1 (stereo not given) | 99%
